Assay results reported in PubChem BioAssay AID330 (DTP/NCI, 2004).
Values joined by “and” are separate entries in the source; they are usually repeats but may differ in a detail not shown here. Equal values may be shown once. Toxic doses and inconclusive results are not listed. How the source made its calls: active means survival T/C of 150% or more; inactive means T/C below 125% in these data.

Tested on: P388 leukemia ip, CD2F1 mice, survival T/C
Test: NCI In Vivo Anticancer Drug Screen. Data for tumor model P388 Leukemia (intraperitoneal) in CD2F1 (CDF1) mice
Details: endpoint: median survival time, higher = longer survival
Outline: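 Mice carrying the transplanted tumor received test compound or vehicle. Survival was recorded in each group, and the value is the treated-group measurement divided by that of the vehicle-treated control group.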

[1] = dose: 60.0 mg/kg/injection, schedule: Q01DX005 (ip), vehicle: saline with Tween-80
[2] = dose: 120.0 mg/kg/injection, schedule: Q01DX005 (ip), vehicle: saline with Tween-80
[3] = dose: 240.0 mg/kg/injection, schedule: Q01DX005 (ip), vehicle: saline with Tween-80
[4] = dose: 100.0 mg/kg/injection, schedule: Q04DX002 (ip), vehicle: saline
[5] = dose: 50.0 mg/kg/injection, schedule: Q01DX005 (ip), vehicle: saline with Tween-80
[6] = dose: 100.0 mg/kg/injection, schedule: Q01DX005 (ip), vehicle: saline with Tween-80
[7] = dose: 200.0 mg/kg/injection, schedule: Q01DX005 (ip), vehicle: saline with Tween-80
[8] = dose: 50.0 mg/kg/injection, schedule: Q01DX009 (ip), vehicle: Klucel (hydroxypropylcellulose) (HPC)
[9] = dose: 100.0 mg/kg/injection, schedule: Q01DX009 (ip), vehicle: Klucel (hydroxypropylcellulose) (HPC)
[10] = dose: 200.0 mg/kg/injection, schedule: Q01DX009 (ip), vehicle: Klucel (hydroxypropylcellulose) (HPC)
[11] = dose: 100.0 mg/kg/injection, schedule: Q01DX009 (ip), vehicle: saline with Tween-80
[12] = dose: 200.0 mg/kg/injection, schedule: Q01DX009 (ip), vehicle: saline with Tween-80

Measured: T/C

c1ccc2c(c1)C1OC2c2cnccc21 (stereo not drawn)
inactive: dose: 100.0 mg/kg/injection, schedule: Q04DX002 (ip), vehicle: saline with Tween-80 95 % of control | dose: 200.0 mg/kg/injection, schedule: Q04DX002 (ip), vehicle: saline with Tween-80 96 % of control | dose: 400.0 mg/kg/injection, schedule: Q04DX002 (ip), vehicle: saline with Tween-80 93 % of control

C=C1CC(O)C2C(C[Se]c3ccccc3)C(=O)O[C@@H]2C2C(=C)[C@@H](O)CC12 (stereo partly drawn)
inactive: [1] 96 % of control | [2] 100 % of control | [3] 99 % of control

CC(=O)Nc1ncc(Sc2ccc([N+](=O)[O-])cc2)s1
inactive: dose: 1.56 mg/kg/injection, schedule: Q04DX003 (ip), vehicle: saline 100 % of control | dose: 3.13 mg/kg/injection, schedule: Q04DX003 (ip), vehicle: saline 99 % of control | dose: 6.25 mg/kg/injection, schedule: Q04DX003 (ip), vehicle: saline 98 % of control | dose: 12.5 mg/kg/injection, schedule: Q04DX003 (ip), vehicle: saline 97 % of control

Cc1cc(=O)[nH]c(Nc2ccccc2)n1
inactive: dose: 100.0 mg/kg/injection, schedule: Q04DX003 (ip), vehicle: saline with Tween-80 100 % of control | dose: 200.0 mg/kg/injection, schedule: Q04DX003 (ip), vehicle: saline with Tween-80 90 % of control | dose: 400.0 mg/kg/injection, schedule: Q04DX003 (ip), vehicle: saline with Tween-80 100 % of control

O=[N+]([O-])Nc1ccccn1
inactive: [4] 114 % of control | dose: 200.0 mg/kg/injection, schedule: Q04DX002 (ip), vehicle: saline 110 % of control | dose: 400.0 mg/kg/injection, schedule: Q04DX002 (ip), vehicle: saline 97 % of control

Nc1c(C(=O)NCc2ccccc2)c2nc3c(C(=O)NCc4ccccc4)ccc(Br)c3oc-2c(Br)c1=O
inactive: [5] 98 % of control | [6] 86 % of control | [7] 89 % of control

O=C(O)/C=N/OCc1cc2c(cc1Cl)OCO2
inactive: dose: 50.0 mg/kg/injection, schedule: Q04DX003 (ip), vehicle: saline sonified 100 % of control | dose: 100.0 mg/kg/injection, schedule: Q04DX003 (ip), vehicle: saline sonified 100 % of control | dose: 200.0 mg/kg/injection, schedule: Q04DX003 (ip), vehicle: saline sonified 105 % of control

CCCCN(C(=O)N(CC)CC)[Si](C)(C)C
inactive: [8] 107 % of control | [9] 100 % of control | [10] 107 % of control

C[n+]1c(-c2cccc(OCCOCCOCCOc3cccc(-c4c5cc(N)ccc5c5ccc(N)cc5[n+]4C)c3)c2)c2cc(N)ccc2c2ccc(N)cc21
inactive: dose: 0.39 mg/kg/injection, schedule: Q01DX009 (ip), vehicle: water 111 % of control | dose: 0.78 mg/kg/injection, schedule: Q01DX009 (ip), vehicle: water 104 % of control

CC(C)CC1([N+](=O)[O-])CN(C)CC2CCCCN2C1 (stereo not drawn)
inactive: dose: 25.0 mg/kg/injection, schedule: Q04DX002 (ip), vehicle: water 102 % of control | dose: 50.0 mg/kg/injection, schedule: Q04DX002 (ip), vehicle: water 107 % of control | [4] 102 % of control | dose: 100.0 mg/kg/injection, schedule: Q04DX002 (ip), vehicle: water 99 % of control

CCOC(=O)c1ccccc1NC(=O)C1C2C=CC(C2)C1C(=O)O (stereo not drawn)
inactive: dose: 50.0 mg/kg/injection, schedule: Q01DX009 (ip), vehicle: saline + alcohol 103 % of control | dose: 100.0 mg/kg/injection, schedule: Q01DX009 (ip), vehicle: saline + alcohol 104 % of control | dose: 200.0 mg/kg/injection, schedule: Q01DX009 (ip), vehicle: saline + alcohol 97 % of control

CC(/C=C/c1ccc(Cl)cc1)=N\NC(N)=S
inactive: dose: 7.5 mg/kg/injection, schedule: Q01DX005 (ip), vehicle: saline with Tween-80 100 % of control | dose: 15.0 mg/kg/injection, schedule: Q01DX005 (ip), vehicle: saline with Tween-80 120 % of control | dose: 30.0 mg/kg/injection, schedule: Q01DX005 (ip), vehicle: saline with Tween-80 124 % of control

COc1nc2c(=O)[nH]c(N)nc2n1C1OC(CO)C(O)C1O (stereo not drawn)
inactive: [11] 98 % of control | [12] 113 % of control | dose: 400.0 mg/kg/injection, schedule: Q01DX009 (ip), vehicle: saline with Tween-80 116 % of control

CC1(C)OCC(C2NC2C2COC(C)(C)O2)O1 (stereo not drawn)
inactive: dose: 50.0 mg/kg/injection, schedule: Q01DX009 (ip), vehicle: saline 108 % of control | dose: 100.0 mg/kg/injection, schedule: Q01DX009 (ip), vehicle: saline 110 % of control | dose: 200.0 mg/kg/injection, schedule: Q01DX009 (ip), vehicle: saline 104 % of control

Cc1ccc(NC(=O)Oc2ccc(C#N)cc2)c(C)c1
inactive: [1] 92 % of control | [2] 95 % of control | [3] 101 % of control

CC1=C(c2ccco2)C2(c3ccco3)C(C(=O)c3ccccc3)C2(C)C1=O (stereo not drawn)
inactive: [5] 90 % of control | [6] 90 % of control | [7] 95 % of control

CC12OC(=O)CC1C(c1ccccc1)(c1ccccc1)O2 (stereo not drawn)
inactive: [1] 100 % of control | [2] 94 % of control | [3] 88 % of control

COC(=S)SCN(CSC(=S)OC)c1ccccc1Cl
inactive: dose: 100.0 mg/kg/injection, schedule: Q04DX003 (ip), vehicle: saline 100 % of control | dose: 200.0 mg/kg/injection, schedule: Q04DX003 (ip), vehicle: saline 100 % of control | dose: 400.0 mg/kg/injection, schedule: Q04DX003 (ip), vehicle: saline 118 % of control

[O-][N+](CCO)(CCO)c1ncnc2nc[nH]c12
inactive: dose: 50.0 mg/kg/injection, schedule: Q01DX005 (ip), vehicle: suspension in saline 102 % of control | dose: 100.0 mg/kg/injection, schedule: Q01DX005 (ip), vehicle: suspension in saline 106 % of control | dose: 200.0 mg/kg/injection, schedule: Q01DX005 (ip), vehicle: suspension in saline 102 % of control

COc1cc2c(cc1OC)C(C#N)N(C(=O)c1ccccc1)C=C2 (stereo not drawn)
inactive: dose: 0.1 mg/kg/injection, schedule: Q01DX009 (ip), vehicle: water 98 % of control | dose: 0.19 mg/kg/injection, schedule: Q01DX009 (ip), vehicle: water 100 % of control | dose: 0.38 mg/kg/injection, schedule: Q01DX009 (ip), vehicle: water 98 % of control | dose: 0.75 mg/kg/injection, schedule: Q01DX009 (ip), vehicle: water 100 % of control | dose: 1.5 mg/kg/injection, schedule: Q01DX009 (ip), vehicle: water 100 % of control

CCOC(=O)c1ccc(NC(Cc2ccccc2)=NC(C)(C)C)cc1
inactive: dose: 50.0 mg/kg/injection, schedule: Q01DX009 (ip), vehicle: saline with Tween-80 98 % of control | [11] 94 % of control | [12] 88 % of control

CCCCCc1cc(O)c2c(c1)OC(C)(C)[C@@H]1CCC(C)=C[C@@H]21
inactive: dose: 1.0 mg/kg/injection, schedule: Q01DX005 (iv), vehicle: other 100 % of control | dose: 1.5 mg/kg/injection, schedule: Q02HX016 (oral), vehicle: olive oil, sesame oil, peanut oil 92 % of control | dose: 2.0 mg/kg/injection, schedule: Q01DX005 (iv), vehicle: other 100 % of control | dose: 3.0 mg/kg/injection, schedule: Q02HX016 (oral), vehicle: olive oil, sesame oil, peanut oil 92 % of control | dose: 4.0 mg/kg/injection, schedule: Q01DX005 (iv), vehicle: other 100 % of control | dose: 8.0 mg/kg/injection, schedule: Q01DX005 (iv), vehicle: other 92 % of control | dose: 16.0 mg/kg/injection, schedule: Q01DX005 (iv), vehicle: other 100 % of control | dose: 32.0 mg/kg/injection, schedule: Q01DX005 (iv), vehicle: other 109 % of control and 96 % of control | dose: 64.0 mg/kg/injection, schedule: Q01DX005 (iv), vehicle: other 99 % of control and 100 % of control | dose: 128.0 mg/kg/injection, schedule: Q01DX005 (iv), vehicle: other 99 % of control | dose: 256.0 mg/kg/injection, schedule: Q01DX005 (iv), vehicle: other 99 % of control

O=C(NNc1ccccc1)N(Nc1ccccc1)C(=O)Nc1ccccc1
inactive: [5] 99 % of control | [6] 91 % of control | [7] 99 % of control

CCn1nnnc1Nc1ccccc1
inactive: [8] 120 % of control | [9] 123 % of control | [10] 113 % of control
